Measurements taken from the CheMixHub ionic liquid set.
± gives the uncertainty stated by the source.

Assay: xn = mol fraction of the nth substance listed

C=CC[n+]1ccn(C)c1.[Cl-] + O
101 kPa
Conditions	viscosity [mPa·s]
298.15 K, x2 = 0.193	697 ± 28
298.15 K, x2 = 0.267	427 ± 15
303.15 K, x2 = 0.335	184 ± 12
313.15 K, x2 = 0.045	473 ± 42
313.15 K, x2 = 0.126	312 ± 10
323.15 K, x2 = 0.335	61 ± 3
333.15 K, x2 = 0.091	108 ± 5
353.15 K, x2 = 0.126	36.9 ± 0.8
353.15 K, x2 = 0.267	24.3 ± 0.5
363.15 K, x2 = 0.091	28.6 ± 0.9
363.15 K, x2 = 0.126	25.6 ± 0.6
373.15 K, x2 = 0.126	18.58 ± 0.41
373.15 K, x2 = 0.193	15.98 ± 0.35
373.15 K, x2 = 0.267	13.37 ± 0.29

CCCCc1n(S(=O)(=O)O)cc[n+]1S(=O)(=O)O.O=C([O-])C(F)(F)F + CO
electrical conductivity [S/m], 101 kPa
Conditions	x1 = 0.0104	x1 = 0.0205	x1 = 0.02551
298.15 K	1.59 ± 0.032	2.16 ± 0.043	–
308.15 K	–	–	2.28 ± 0.046

CCC[N+](C)(C)C.O=S(=O)([N-]S(=O)(=O)C(F)(F)F)C(F)(F)F + CCC[N+]1(C)CCCC1.O=S(=O)([N-]S(=O)(=O)C(F)(F)F)C(F)(F)F
101.3 kPa
Conditions	viscosity [mPa·s]
283.15 K, x1 = 0.4	135 ± 27
283.15 K, x1 = 0.6	148 ± 30
283.15 K, x1 = 1	179 ± 36
288.15 K, x1 = 0.6	113 ± 23
288.15 K, x1 = 1	133 ± 27
293.15 K, x1 = 0.4	81 ± 16
303.15 K, x1 = 0.8	59 ± 12
308.15 K, x1 = 0.2	42.2 ± 8.5
308.15 K, x1 = 0.6	46.1 ± 9.2
313.15 K, x1 = 0.6	38.2 ± 7.7
318.15 K, x1 = 0.8	33.4 ± 6.7
323.15 K, x1 = 0.8	28.3 ± 5.7
323.15 K, x1 = 1	29.5 ± 5.9
328.15 K, x1 = 0.2	22 ± 4.4
328.15 K, x1 = 0.4	22.2 ± 4.4
328.15 K, x1 = 0.8	24.2 ± 4.8
333.15 K, x1 = 0.2	19.1 ± 3.8
333.15 K, x1 = 0.4	19.3 ± 3.9
333.15 K, x1 = 0.6	20.3 ± 4.1
333.15 K, x1 = 1	21.7 ± 4.3
343.15 K, x1 = 0.4	14.9 ± 3
348.15 K, x1 = 0.4	13.3 ± 2.7
353.15 K, x1 = 0.2	11.8 ± 2.4
353.15 K, x1 = 0.6	12.3 ± 2.5

CC[n+]1ccn(C)c1C.O=S(=O)([N-]S(=O)(=O)C(F)(F)F)C(F)(F)F + O=C1CCCO1
100 kPa, frequency 0.005 MHz
Conditions	electrical conductivity [S/m]
293.15 K, x2 = 0.3071	0.628 ± 0.019
293.15 K, x2 = 0.7999	1.36 ± 0.041
293.15 K, x2 = 0.9507	0.925 ± 0.031
298.15 K, x2 = 0	0.383 ± 0.012
298.15 K, x2 = 0.6999	1.42 ± 0.043
298.15 K, x2 = 0.7999	1.52 ± 0.046
308.15 K, x2 = 0.4996	1.34 ± 0.04
308.15 K, x2 = 0.8999	1.72 ± 0.053
313.15 K, x2 = 0.8999	1.84 ± 0.056
318.15 K, x2 = 0.4996	1.69 ± 0.051
323.15 K, x2 = 0	0.92 ± 0.028
323.15 K, x2 = 0.0999	1.07 ± 0.032
323.15 K, x2 = 0.5987	2.02 ± 0.061
323.15 K, x2 = 0.8474	2.3 ± 0.069
323.15 K, x2 = 0.9507	1.4 ± 0.046

Cn1cc[n+](CCC[n+]2ccn(C)c2)c1.[Br-].[Br-] + O=C[C@H](O)[C@@H](O)[C@H](O)[C@H](O)CO + O
viscosity [mPa·s], 101 kPa
Conditions	293.15 K	298.15 K	303.15 K	308.15 K	313.15 K
x1 = 0.0005066, x2 = 0.001798	1.061	0.945	0.846	0.764	0.696
x1 = 0.0005575, x2 = 0.001798	1.059	0.942	0.844	0.765	0.695
x1 = 0.0005912, x2 = 0	1.016	0.905	0.812	0.734	0.669
x1 = 0.0006805, x2 = 0	1.016	0.904	0.811	0.734	0.67
x1 = 0.0007464, x2 = 0.001797	1.065	0.947	0.848	0.768	0.698
x1 = 0.0007474, x2 = 0	1.019	0.908	0.816	0.739	0.673
x1 = 0.0009122, x2 = 0	1.025	0.913	0.82	0.74	0.675
x1 = 0.0009147, x2 = 0.001797	1.073	0.954	0.856	0.773	0.704
x1 = 0.001085, x2 = 0.001797	1.079	0.96	0.86	0.779	0.707
x1 = 0.001235, x2 = 0.001797	1.086	0.966	0.867	0.78	0.71
x1 = 0.00129, x2 = 0	1.043	0.927	0.832	0.754	0.686
x1 = 0.001332, x2 = 0.001796	1.083	0.963	0.863	0.782	0.712
x1 = 0.00144, x2 = 0	1.05	0.935	0.84	0.758	0.693
x1 = 0.001476, x2 = 0.001796	1.087	0.966	0.866	0.784	0.713
x1 = 0.001591, x2 = 0.001796	1.093	0.97	0.87	0.786	0.715
x1 = 0.001838, x2 = 0	1.066	0.948	0.85	0.768	0.7
x1 = 0.002094, x2 = 0	1.071	0.955	0.855	0.77	0.702
x1 = 0.002204, x2 = 0	1.071	0.955	0.857	0.774	0.705
x1 = 0.002491, x2 = 0	1.084	0.962	0.859	0.775	0.708

OC[C@H]1O[C@H](O[C@H]2[C@H](O)[C@@H](O)C(O)O[C@@H]2CO)[C@H](O)[C@@H](O)[C@@H]1O (stereo partly drawn) + CCCCCCCCCCCCCCCC[N+](C)(C)C.[Br-] + O
viscosity [mPa·s], 100 kPa
Conditions	298.15 K	308.15 K	318.15 K
x2 = 7.13e-06, x1 = 0.002703	1.07 ± 0.062	0.885 ± 0.063	0.734 ± 0.061
x2 = 7.15e-06, x1 = 0.002359	1.048 ± 0.062	0.867 ± 0.061	0.719 ± 0.061
x2 = 7.16e-06, x1 = 0.001637	1.002 ± 0.062	0.829 ± 0.061	0.688 ± 0.061
x2 = 7.16e-06, x1 = 0.001964	1.023 ± 0.062	0.846 ± 0.061	0.702 ± 0.061
x2 = 7.18e-06, x1 = 0.0009633	0.958 ± 0.061	0.793 ± 0.061	0.659 ± 0.061
x2 = 7.18e-06, x1 = 0.001278	0.978 ± 0.061	0.809 ± 0.061	0.672 ± 0.061
x2 = 1.423e-05, x1 = 0.002657	1.073 ± 0.062	0.888 ± 0.062	0.736 ± 0.061
x2 = 1.424e-05, x1 = 0.002424	1.058 ± 0.062	0.875 ± 0.062	0.726 ± 0.061
x2 = 1.428e-05, x1 = 0.001986	1.029 ± 0.062	0.851 ± 0.061	0.706 ± 0.061
x2 = 1.43e-05, x1 = 0.001593	1.003 ± 0.062	0.83 ± 0.061	0.688 ± 0.061
x2 = 1.433e-05, x1 = 0.001228	0.979 ± 0.061	0.81 ± 0.061	0.672 ± 0.061
x2 = 1.435e-05, x1 = 0.0009418	0.96 ± 0.061	0.795 ± 0.061	0.659 ± 0.061
x2 = 2.126e-05, x1 = 0.002693	1.08 ± 0.062	0.894 ± 0.063	0.74 ± 0.061
x2 = 2.128e-05, x1 = 0.002482	1.066 ± 0.062	0.882 ± 0.062	0.73 ± 0.061
x2 = 2.135e-05, x1 = 0.001972	1.032 ± 0.062	0.854 ± 0.061	0.707 ± 0.061
x2 = 2.141e-05, x1 = 0.001636	1.01 ± 0.062	0.835 ± 0.061	0.692 ± 0.061
x2 = 2.143e-05, x1 = 0.001347	0.99 ± 0.061	0.819 ± 0.061	0.678 ± 0.061
x2 = 2.15e-05, x1 = 0.0008556	0.957 ± 0.061	0.792 ± 0.061	0.656 ± 0.061

[Cl-].[Na+] + CCCCCCCCCCCC[N+](C)(C)C.[Br-] + O
298.15 K, 101 kPa
Conditions	electrical conductivity [S/m]
x2 = 0, x1 = 0.0001802	0.1161 ± 0.0002
x2 = 0, x1 = 0.001799	0.8806 ± 0.0018

CCCC[N+](C)(CCCC)CCCC.N#C[N-]C#N + CC[n+]1ccn(C)c1.N#C[N-]C#N
viscosity [mPa·s], 101 kPa
Conditions	303.15 K	333.15 K	343.15 K	353.15 K
x2 = 0.2114	109.5 ± 5.2	–	20.6 ± 0.85	15.38 ± 0.63
x2 = 0.3975	–	19.3 ± 0.8	–	11.19 ± 0.46
x2 = 0.6047	33 ± 1.4	–	–	–
